For this assay, the target named is Gag-Pol polyprotein (Human immunodeficiency virus type 1 group M subtype B (isolate HXB2), UniProt P04585). Put plainly: Microtiter Plate Assay for Strand Transfer. The settings on record: pH 7.8; 37 °C. The protocol:
The microtiter plate assay for stand transfer was performed with an immobilized donor substrate and a target substrate biotinylated at the 3-prime end of each DNA strand. Integrase was first assembled with immobilized LTR oligonucleotides for 30 min. Inhibitors were added after assembly and washings. For the strand transfer reaction, it was initiated with the addition of the biotinylated target substrate. Strand transfer reaction mixtures were incubated for additional 30 min, and the strand transfer products were detected by using alkaline phosphatase-conjugated avidin (Boehringer Mannheim, Indianapolis, Ind.).

In BindingDB's records for doi:10.1021/jm800245z (Merck Research Laboratories, 2008) one finds IC50 data, which are given here for one compound.

Usually IC50 stands for the concentration needed to halve the response being measured. A high value points to weaker potency in that assay.

Each structure is given as a SMILES string. Where only a bound is given, the exact number is not on record here.

`CNC(=O)c1nc(C(C)(C)NC(=O)C(=O)N(C)C)n(C)c(=O)c1O` [N-{2-[5-hydroxy-1-methyl-4-(methylcarbamoyl)-6-oxo-1,6-dihydropyrimidin-2-yl]propan-2-yl}-N',N'-dimethylethanediamide] registered an IC50 greater than 5 µM.
